What all share (format): biochemical
Test [1] concerns the target T1, human GST-DYRK1A (full length) (Homo sapiens, UniProt Q13627).
T1 construct: purified human GST-DYRK1A (full length, Thermo scientifics) enzyme; GST; purchased Thermo scientifics
Put plainly: GST-DYRK1A enzyme inhibition, ADP-Glo kinase assay. The conditions noted are these: read-out: DYRK1 IC50. In a few lines: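 Full-length human GST-DYRK1A (10 ng) incubated with 10 uM ATP and specific substrate for 1 h at 25° C in 40 mM Tris-HCl pH 7.4, 20 mM MgCl2, 0.5 mg/mL BSA, 50 uM DTT. ADP formation read by ADP-Glo luminescence; IC50 (nM) versus solvent control, triplicate.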
On the technique in general: ADP-Glo first removes unused ATP, then detects ADP through luciferase.

The next test has as its target T2, human GST-CLK1 (129-end) (Homo sapiens, UniProt P49759).
T2 construct: purified human GST-CLK1 (129-end, Signalchem) enzyme; GST; purchased Signalchem
The test is described as follows: GST-CLK1 enzyme inhibition, ADP-Glo kinase assay. Conditions: ATP 10 uM. The method in brief: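 GST-CLK1 (129-end, 3 ng) reacted with 10 uM ATP and substrate in 40 mM Tris-HCl pH 7.4, 20 mM MgCl2, 0.5 mg/mL BSA, 50 uM DTT, 1 h at 25° C. ADP-Glo luminescence normalised to solvent control; IC50 from triplicate data.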

The target of the next test is LRRK2 (Homo sapiens, UniProt Q5S007). The test is described as follows: LRRK2 enzyme inhibition, ADP-Glo kinase assay. More on the design: purchased Invitrogen PR8604B. As to the method:
In order to evaluate the inhibitory activity of the compounds according to the present invention on LRRK2, LRRK2 (G2019S), DYRK1, CLK1 and TTK kinases, the following experiment was performed.
Example compounds were reacted with the purified human LRRK2 (Invitrogen #PR8604B) enzyme to evaluate the enzyme inhibitory ability as follows. The reaction buffer was used as the composition of 40 mM Tris-HCl pH7.4, 20 mM MgCl2, 0.5 mg/ml BSA and 50 μM DTT, and the reaction of all test materials was performed on the reaction buffer. The compound was diluted with 10 mM DMSO stock in 12 steps by a serial dilution method, and the enzyme activity was measured at the final compound concentrations of 50, 10, 2, 0.4, 0.08, 0.016, 0.0032, 0.00064, 0.000128, 0.0000256, 0.00000512 and 0.000001024 μM. In the test, the human LRRK2 (25 ng) enzyme was reacted with the purified ATP (10 μM) and an enzyme substrate ([…]) at 25° C. for 2 hours, and then the enzyme activity was identified using the in vitro ADP-Glo™ kinase assay (promega). The enzyme activity reaction liquid, an ADP-Glo reaction liquid and an enzyme potency detection solution were reacted in a ratio of 2:2:1, and the degree of inhibition of enzyme activity was measured by Luminescence. The degree of inhibition of enzyme activity according to the treatment concentrations of the respective compounds was calculated based on the fluorescence of the enzyme activity of a solvent control group that was not treated with the compound, where the concentration of each compound to inhibit enzyme activity inhibition by 50% was determined as an IC50 (nM) value and obtained using Prism (Version 5.01, GraphPad) software.
In the table below, the following designations were used for the evaluation of enzyme inhibitory ability.

The target in a further test is LRRK2 (G2019S) (Homo sapiens, UniProt Q5S007, G2019S). The test is described as follows: LRRK2 G2019S enzyme inhibition, ADP-Glo kinase assay. More on the design: purchased SignalChem L10-12GG. The method in brief: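 Purified human LRRK2 G2019S (16 ng) with 25 μM ATP and 0.2 μg substrate, 2 h at 25° C in 40 mM Tris-HCl pH 7.4, 20 mM MgCl2, 0.5 mg/ml BSA, 50 μM DTT; compound at 12 final concentrations from 50 μM downward. ADP-Glo luminescence versus solvent control gave IC50 (nM).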

Molecules are shown by their SMILES.

For 17 compounds, IC50 results are on record in US12240844B2 (Voronoi, Inc., priority 2019, dated 2025).

T2 sequence (P49759 129-484 limits assumed): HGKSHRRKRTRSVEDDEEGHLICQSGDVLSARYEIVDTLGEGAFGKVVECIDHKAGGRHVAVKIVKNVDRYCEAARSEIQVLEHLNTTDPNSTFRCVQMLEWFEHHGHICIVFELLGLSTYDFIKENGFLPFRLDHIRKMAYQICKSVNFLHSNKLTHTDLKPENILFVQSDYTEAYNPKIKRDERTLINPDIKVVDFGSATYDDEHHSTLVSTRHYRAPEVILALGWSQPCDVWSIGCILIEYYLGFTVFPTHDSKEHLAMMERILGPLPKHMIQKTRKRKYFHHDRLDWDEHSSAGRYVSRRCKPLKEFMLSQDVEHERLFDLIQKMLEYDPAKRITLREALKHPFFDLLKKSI
LRRK2 (G2019S), sequence (Q5S007 970-2527 G2019S limits assumed): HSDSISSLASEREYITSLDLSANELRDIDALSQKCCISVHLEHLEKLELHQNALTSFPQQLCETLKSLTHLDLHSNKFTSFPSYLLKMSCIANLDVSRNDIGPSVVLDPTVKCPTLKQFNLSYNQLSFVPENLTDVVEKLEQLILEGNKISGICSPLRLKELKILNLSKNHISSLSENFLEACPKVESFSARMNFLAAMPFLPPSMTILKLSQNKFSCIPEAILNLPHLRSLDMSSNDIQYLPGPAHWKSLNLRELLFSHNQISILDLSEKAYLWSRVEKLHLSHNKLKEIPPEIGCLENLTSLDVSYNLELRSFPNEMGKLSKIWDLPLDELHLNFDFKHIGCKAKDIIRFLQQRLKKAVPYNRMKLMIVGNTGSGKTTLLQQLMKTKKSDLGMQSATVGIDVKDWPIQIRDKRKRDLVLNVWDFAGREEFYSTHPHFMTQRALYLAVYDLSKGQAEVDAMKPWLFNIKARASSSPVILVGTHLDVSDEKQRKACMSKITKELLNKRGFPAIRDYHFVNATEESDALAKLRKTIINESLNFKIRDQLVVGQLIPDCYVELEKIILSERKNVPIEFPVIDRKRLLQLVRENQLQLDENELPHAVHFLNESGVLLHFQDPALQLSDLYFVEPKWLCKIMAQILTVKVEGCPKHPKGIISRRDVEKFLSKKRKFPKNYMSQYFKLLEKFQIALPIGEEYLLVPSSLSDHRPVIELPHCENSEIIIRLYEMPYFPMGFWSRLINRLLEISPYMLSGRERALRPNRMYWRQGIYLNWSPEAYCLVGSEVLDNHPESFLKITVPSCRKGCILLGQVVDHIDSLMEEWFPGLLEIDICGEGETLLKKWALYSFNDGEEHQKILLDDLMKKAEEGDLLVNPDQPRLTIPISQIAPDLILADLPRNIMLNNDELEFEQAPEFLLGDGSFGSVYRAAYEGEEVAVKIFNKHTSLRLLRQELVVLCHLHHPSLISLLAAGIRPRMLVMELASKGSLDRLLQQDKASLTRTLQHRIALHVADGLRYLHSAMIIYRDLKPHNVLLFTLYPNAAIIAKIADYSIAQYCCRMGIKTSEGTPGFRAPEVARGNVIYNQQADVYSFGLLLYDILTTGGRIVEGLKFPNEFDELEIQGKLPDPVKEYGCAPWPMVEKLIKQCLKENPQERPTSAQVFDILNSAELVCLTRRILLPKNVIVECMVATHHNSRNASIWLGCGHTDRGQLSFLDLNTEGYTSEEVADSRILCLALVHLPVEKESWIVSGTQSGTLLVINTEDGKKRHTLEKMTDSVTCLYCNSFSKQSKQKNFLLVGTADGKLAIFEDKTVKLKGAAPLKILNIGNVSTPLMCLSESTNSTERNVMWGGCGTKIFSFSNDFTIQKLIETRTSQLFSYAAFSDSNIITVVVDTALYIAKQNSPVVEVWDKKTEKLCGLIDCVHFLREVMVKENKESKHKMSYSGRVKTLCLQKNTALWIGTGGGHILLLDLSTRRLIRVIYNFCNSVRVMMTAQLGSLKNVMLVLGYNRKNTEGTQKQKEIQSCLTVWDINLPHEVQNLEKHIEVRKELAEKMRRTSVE
LRRK2, sequence (Q5S007 970-2527 limits assumed): as the sequence (Q5S007 970-2527 G2019S limits assumed) above, with S1050G counted along it

As a reminder, the IC50 is the concentration at which inhibition is half-maximal. Consider `CCNc1cc(Nc2ccc(C(=O)N3CCOCC3)c3c2OCC3)nc2[nH]cc(C(F)(F)F)c12` [Example 89, (7-((4-(ethylamino)-3-(trifluoromethyl)-1H-pyrrolo[2,3-b]pyridin-6-yl)amino)-2,3-dihydrobenzofuran-4-yl)(morpholino) methanone], for which the IC50 (in test [1]; at human GST-CLK1 (129-end); at LRRK2; at LRRK2 (G2019S)) was less than 100 nM in each case.

With `COc1cc(S(C)(=O)=O)ccc1Nc1cc(NCCS(C)(=O)=O)c2c(C#N)c[nH]c2n1` [Example 119, 6-((2-methoxy-4-(methylsulfonyl)phenyl)amino)-4-((2-(methylsulfonyl)ethyl)amino)-1H-pyrrolo[2,3-b]pyridine-3-carbonitrile], the IC50 is 301 to 1000 nM in test [1], 301 to 1000 nM at human GST-CLK1 (129-end), less than 100 nM on LRRK2 and less than 100 nM against LRRK2 (G2019S).

As to `COc1cc(S(C)(=O)=O)ccc1Nc1cc(NC2CCC2)c2c(Cl)c[nH]c2n1` [Example 85, 3-chloro-N^4-cyclobutyl-N^6-(2-methoxy-4-(methylsulfonyl)phenyl)-1H-pyrrolo[2,3-b]pyridine-4,6-diamine], the IC50 is 101 to 300 nM in test [1], 301 to 1000 nM against human GST-CLK1 (129-end), 301 to 1000 nM against LRRK2 and 301 to 1000 nM against LRRK2 (G2019S).

`O=C(c1ccc(Nc2cc(NC3CC3)c3c(C(F)(F)F)c[nH]c3n2)c2c1OCCO2)N1CCOCC1` [Example 155, (8-((4-(cyclopropylamino)-3-(trifluoromethyl)-1H-pyrrolo[2,3-b]pyridin-6-yl)amino)-2,3-dihydrobenzo[b] [1,4]dioxin-5-yl)(morpholino) methanone 2,2,2-trifluoroacetate]: the IC50 was 301 to 1000 nM in test [1], less than 100 nM against human GST-CLK1 (129-end), less than 100 nM on LRRK2 and 101 to 300 nM at LRRK2 (G2019S).

`COCCNc1cc(Nc2ccc(C(=O)N3CCC(N4CCOCC4)CC3)c3c2OCCO3)nc2[nH]cc(C#N)c12` [Example 118, 4-((2-methoxyethyl)amino)-6-((8-(4-morpholinopiperidine-1-carbonyl)-2,3-dihydrobenzo [b] [1,4]dioxin-5-yl)amino)-1H-pyrrolo[2,3-b]pyridine-3-carbonitrile]: the IC50 in test [1] was 301 to 1000 nM; on human GST-CLK1 (129-end), less than 100 nM; against LRRK2 it was less than 100 nM; against LRRK2 (G2019S), less than 100 nM.

Consider `CNc1cc(Nc2ccc(S(=O)(=O)N3CCOCC3)cc2OC)nc2[nH]cc(Cl)c12` [Example 64, 3-chloro-N^6-(2-methoxy-4-(morpholinosulfonyl)phenyl)-N^4-methyl-1H-pyrrolo[2,3-b]pyridine-4,6-diamine], for which the IC50 (in test [1]; against human GST-CLK1 (129-end); against LRRK2; against LRRK2 (G2019S)) was 301 to 1000 nM each time.

For the compound `COc1cc(S(=O)(=O)N2CCOCC2)ccc1Nc1cc(NC2CCC2)c2c(Cl)c[nH]c2n1` [Example 69, 3-chloro-N^4-cyclobutyl-N^6-(2-methoxy-4-(morpholinosulfonyl)phenyl)-1H-pyrrolo[2,3-b]pyridine-4,6-diamine], the IC50 (in test [1]; on human GST-CLK1 (129-end); at LRRK2; on LRRK2 (G2019S)) was 301 to 1000 nM each time.

With `CCNc1cc(Nc2ccc(P3(=O)CCN(C(C)=O)CC3)cc2OC)nc2[nH]cc(C#N)c12` [Example 145, 6-((4-(1-acetyl-4-oxido-1,4-azaphosphinan-4-yl)-2-methoxyphenyl)amino)-4-(ethylamino)-1H-pyrrolo[2,3-b]pyridine-3-carbonitrile], the IC50 in test [1] was 101 to 300 nM; against human GST-CLK1 (129-end), 301 to 1000 nM; at LRRK2 it was less than 100 nM.

On to `CCNc1cc(Nc2ccc(P3(=O)CCN(C4CC4)CC3)cc2OC)nc2[nH]cc(C#N)c12` [Example 147, 6-((4-(1-cyclopropyl-4-oxido-1,4-azaphosphinan-4-yl)-2-methoxyphenyl)amino)-4-(ethylamino)-1H-pyrrolo[2,3-b]pyridine-3-carbonitrile], for which the IC50 in test [1] was less than 100 nM; on human GST-CLK1 (129-end), 301 to 1000 nM; against LRRK2 it was less than 100 nM.

On to `CCNc1cc(Nc2ccc(P3(=O)CCN(C4COC4)CC3)cc2OC)nc2[nH]cc(C#N)c12` [Example 143, 4-(ethylamino)-6-((2-methoxy-4-(1-(oxetan-3-yl)-4-oxido-1,4-azaphosphinan-4-yl)phenyl)amino)-1H-pyrrolo[2,3-b]pyridine-3-carbonitrile], for which the IC50 in test [1] is 301 to 1000 nM; on human GST-CLK1 (129-end), 101 to 300 nM; at LRRK2 it was less than 100 nM.

Consider `COc1cc(P2(=O)CCN(C3CC3)CC2)ccc1Nc1cc(NC2CCC2)c2c(C(F)(F)F)c[nH]c2n1` [Example 46, 4-(4-((4-(cyclobutylamino)-3-(trifluoromethyl)-1H-pyrrolo[2,3-b]pyridin-6-yl)amino)-3-methoxyphenyl)-1-cyclopropyl-1,4-azaphosphinane 4-oxide], for which the IC50 (in test [1]; against human GST-CLK1 (129-end); at LRRK2) was 301 to 1000 nM in each case.

Turning to `CCCNc1cc(Nc2ccc(P3(=O)CCN(C4CC4)CC3)cc2OC)nc2[nH]cc(C(F)(F)F)c12` [Example 45, 1-cyclopropyl-4-(3-methoxy-4-((4-(propylamino)-3-(trifluoromethyl)-1H-pyrrolo[2,3-b]pyridin-6-yl)amino)phenyl)-1,4-azaphosphinane 4-oxide], the IC50 was in the range of 101 to 300 nM in test [1], 301 to 1000 nM on human GST-CLK1 (129-end) and 101 to 300 nM against LRRK2.

Consider `COCCNc1cc(Nc2ccc(P3(=O)CCN(C4COC4)CC3)cc2OC)nc2[nH]cc(C#N)c12` [Example 144, 6-((2-methoxy-4-(1-(oxetan-3-yl)-4-oxido-1,4-azaphosphinan-4-yl)phenyl)amino)-4-((2-methoxyethyl)amino)-1H-pyrrolo[2,3-b]pyridine-3-carbonitrile], for which the results for the IC50 (in test [1]; on human GST-CLK1 (129-end); against LRRK2) were 301 to 1000 nM, 101 to 300 nM and less than 100 nM, respectively.

`COc1cc(P2(=O)CCN(C3CC3)CC2)ccc1Nc1cc(NC2CC2)c2c(C(F)(F)F)c[nH]c2n1` [Example 211, 1-cyclopropyl-4-(4-((4-(cyclopropylamino)-3-(trifluoromethyl)-1H-pyrrolo[2,3-b]pyridin-6-yl)amino)-3-methoxyphenyl)-1,4-azaphosphinane 4-oxide]: the IC50 in test [1] is 301 to 1000 nM; against human GST-CLK1 (129-end) it was 301 to 1000 nM; on LRRK2 it was less than 100 nM.

`CN(C)c1cc(Nc2ccc(C(=O)N3CCC(N4CCOCC4)CC3)c3c2OCCO3)nc2[nH]cc(C(F)(F)F)c12` [Example 50, (8-((4-(dimethylamino)-3-(trifluoromethyl)-1H-pyrrolo[2,3-b]pyridin-6-yl)amino)-2,3-dihydrobenzo[b] [1,4]dioxin-5-yl)(4-morpholinopiperidin-1-yl)methanone]: the IC50 in test [1] is 301 to 1000 nM; on human GST-CLK1 (129-end), less than 100 nM; at LRRK2, less than 100 nM.

With `CNc1cc(Nc2ccc(C(=O)N3C[C@@H]4C[C@H]3CO4)c3c2OCCO3)nc2[nH]cc(C(F)(F)F)c12` [Example 43, ((1S,4S)-2-oxa-5-azabicyclo[2.2.1]heptan-5-yl)(8-((4-(methylamino)-3-(trifluoromethyl)-1H-pyrrolo[2,3-b]pyridin-6-yl)amino)-2,3-dihydrobenzo[b] [1,4]dioxin-5-yl)methanone], the IC50 (in test [1]; at human GST-CLK1 (129-end); on LRRK2) was less than 100 nM each time.

In the case of `CCN(C)c1cc(Nc2ccc(C(=O)N3CCC(N4CCOCC4)CC3)c3c2OCCO3)nc2[nH]cc(C(F)(F)F)c12` [Example 51, (8-((4-(ethyl(methyl)amino)-3-(trifluoromethyl)-1H-pyrrolo[2,3-b]pyridin-6-yl)amino)-2,3-dihydrobenzo [b] [1,4]dioxin-5-yl)(4-morpholinopiperidin-1-yl)methanone], the 50% inhibitory concentration (IC50) in test [1] was 301 to 1000 nM; against human GST-CLK1 (129-end), 101 to 300 nM; at LRRK2, 101 to 300 nM.
